Laboratory results from PMC10385664, “Projection of Target Drug Particle Size in Oral Formulations Using the Refined Developability Classification System (rDCS)” (Pharmaceutics, 2023).

What was measured:
[1] = Shake-flask n-octanol/water logDpH7.4 with HPLC-UV; format: physicochemical; details: octanol / 0.01 M phosphate buffer pH 7.4, 25 °C
Description: LogDpH7.4 values of the three APIs were determined at Pion Inc (UK) Ltd. (Forest Row, UK) using a shake-flask screening method and high performance liquid chromatography with UV detection (HPLC-UV). Samples containing the API were equilibrated between octanol-saturated 0.01 M phosphate buffer at pH 7.4 and buffer-saturated octanol and analyzed by HPLC-UV. The experimental details are provided in Supplementary Materials. Measured logDpH7.4 values are presented as means (±SD) and were compared to literature values as well as in silico predictions using the software ADMET Predictor version 9 and ACD/Labs Release 2021.1.2. […]
version 9 (Simulations Plus Inc., Lancaster, CA, USA) and ACD/ Labs Release 2021.1.2 (Advanced Chemistry Devel opment Inc., Toronto, Canada) with the molecular structure as input.
S.2.3. n‐Octanol/Water Distribution Coefficient (logDpH7.4) […]
screening method and HPLC analysis. Samples (n = 3) were prepared by addition of a 10 mM API stock solution in DMSO to an oct anol saturated 0.01 M phosphate buffer at pH 7.4 to prepare a 1:10 dilution (ionic strength adjusted with 0.15 M NaCl). Buffer saturated octanol was added (1:1) to prepare pa rtiti on systems, which were agitated on an electronic shake pla te for 4 h at 25 ± 2°C. All samples were centrifuged, and aqueous and octanol layers were separately transferred to 96 well plat es. Both layers of each replicate were analyzed with a standard HPLC gradient method (Table S3). A Waters Acquity H‐Class Plus System consisting of a sample manager, a quaternary solvent manager and a photodiode array (PDA) detector was used. All HPLC data was collected and processed using the software Empower® version 3.0. Measured logDpH7.4 values are presented as means with standard deviation and were compared to literature va lu es and predictions using the software ADMET Predictor version 9 and ACD/Labs Release 2021.1.2 wit h the molecular structure as input.
Table S3. Standard HP LC method for the determination of logDpH7.4 values.
System Waters Acquity H‐Class Plus System […]

[2] = Caco-2 permeability assay (pH 6.5/7.4 gradient, ± elacridar); details: human; for recovery at 120 min, 10 µM: Caco-2
Description: (§1) In vitro permeability studies were performed at Cyprotex Discovery Ltd. (Macclesfield, UK) using a high-throughput Caco-2 permeability assay. Permeability at 37 °C was assessed from the apical to basolateral side (A⟹B) and in opposite direction (B⟹A) applying a pH gradient with pH 6.5 in the apical and pH 7.4 in the basolateral compartment (Hanks Balanced Salt Solution, HBSS). After an incubation of 120 min, samples were diluted for analysis via liquid chromatography coupled with tandem mass spectrometry (LC-MS/MS). […] Experiments were performed in absence and presence of the P-glycoprotein (P-gp) inhibitor elacridar (10 µM) to study transporter-mediated efflux effects. The dosing solutions contained the API (10 µM) in HBSS, and DMSO in a concentration of ≤1% v/v. Lucifer yellow (100 µM) was included as fluorescent integrity marker. Further experimental details are provided in Supplementary Materials.
(§2) The apparent permeability coefficients (Papp) were calculated according to Equation (27):(27) Papp=dQ/dt/C0·A where dQ/dt is the permeation rate of the API across the cell monolayer, C0 is the starting concentration of the API in the dosing solution and A is the surface area of the cell monolayer. The efflux ratios (ERs) were calculated from the B⟹A and A⟹B Papp values to estimate whether P-gp mediated efflux was involved in the transport of the APIs. The mass balance (% recovery) was calculated from the sum of the API recovered from the acceptor and donor compartments at the end of the experiment, divided by the initial donor amount.
(§3) Table S6. Gradient of the UPLC method for analysis of lemborexant.
(§4) Table S7. Gradient of the UPLC method for analysis of istradefylline.
(§5) S.2.5. rDCS Standard Investigations: Caco‐2 permeability studies
(§6) Caco‐2 cells were obtained from the American Type Culture Collection (ATCC, Manassas, VA, USA) and used between passage numbers 40 to 60. The cells were seeded onto Millipore Multiscreen Transwell plates at a density of 1 x 10^5 cells/cm2 and cultured in Dulbeccoʹs Modified Eagleʹs Medium (DMEM). The medium was changed every two or three days. Ce l l culture was carried out at 37 °C in an atmosphere of 5 % CO2 with a relative humidity of 95 %. The permeability assay was performed on day 20.
(§7) In vitro permeability was assessed wit h a high‐throughput Caco‐2 permeability assay. The assay was prepared by rinsing apical and basolateral monolayer surfaces twice with Hanks Balanced Salt Solution (HBSS) at the desired pH and 37 °C. Subsequently, cells in the apical and basolateral compartments were incubated with HBSS at the desired pH for 40 min. A pH gradient with pH 6.5 in the apical compartment and pH 7.4 in the basolateral compartment was applied. Dosing solutions containing the API (10 μ M) were prepared by diluting a concentrated API solution in DMS O with HBSS. The final DMSO concentration was ≤ 1% v/v. Lucifer yellow (100 μM) was included in the dosing solution as fluorescent integrity marker. For the assessment of the permeability from the apical to basolateral side (A⟹B), HBSS in the apical compartment was replaced with the dosing solution. The apical inserts were placed into a companion plat e containing fresh buffer with 1% v/ v DMSO. For the assessment of the permeability from the basolateral to […]
(§8) apical side (B⟹A), HBSS was removed from the companion plate and replaced with the solution of drug in HBSS. Fresh HBSS was added to the apical insert, which was then placed into the companion plate.
(§9) Experiments were performed in absence and presence of the P‐glycoprotein (P‐gp) inhibitor elacridar (10 μM) to study transporter‐mediated efflux effects. In those experiments, elacridar was included in both compartments during the equilibration time and assay. The starting concentration (C0) was confirmed by sampling from the dosing solution immediately before dosing into the cell pl ates. After incubation of 120 minutes, the apical inserts and companion plates were separated for sampling from both compartments.

Caco-2 cells = assay: as above
Description: as §1, §2, §3, §4, §5, §6, §7, §8, §9

P-gp = assay: as above; details: human, Caco-2, with P-gp inhibitor elacridar 10 µM
Description: as §1, §2, §3, §4, §5, §6, §7, §8, §9

[3] = method not disclosed; cited from earlier work
[4] = Caco-2, Papp(A⟹B), Caco-2, 10 µM, apical pH 6.5 / basolateral pH 7.4, 120 min, without inhibitor
[5] = Caco-2, Papp(B⟹A), Caco-2, without inhibitor
[6] = Caco-2, with elacridar 10 µM, Papp(A⟹B) + inhibitor
[7] = Caco-2, with elacridar 10 µM, Papp(B⟹A) + inhibitor

Row | Compound | logD at 4 h [1] | recovery at 120 min, 10 µM [2] | Papp at 120 min, 10 µM [2, 4] | Papp at 120 min, 10 µM [2, 5] | permeability assessment (Caco-2 cells; against antipyrine, propranolol and atenolol as comparators) | Papp at 120 min, 10 µM (P-gp; Caco-2, Papp(A⟹B) + inhibitor) | Papp at 120 min, 10 µM (P-gp; Caco-2, Papp(B⟹A) + inhibitor) | Literature logP [3] | Papp at 120 min, 10 µM (P-gp; [6]) | Papp at 120 min, 10 µM (P-gp; [7]) | permeability assessment (Caco-2 cells; Caco-2)
1 | Cc1ncc(OC[C@@]2(c3cccc(F)c3)C[C@H]2C(=O)Nc2ccc(F)cn2)c(C)n1 [Lemborexant, lemborexant] | 3.04 ± 0.05 | > 74% | 267 ± 12 nm/s | 418 ± 12 nm/s | highly permeable | 242 ± 7 nm/s | 390 ± 4 nm/s | 3.70 [33] | – | – | –
2 | CCn1c(=O)c2c(nc(/C=C/c3ccc(OC)c(OC)c3)n2C)n(CC)c1=O [Istradefylline, istradefylline] | 2.96 ± 0.03 | > 85% | 302 ± 12 nm/s | 283 ± 160 nm/s | – | – | – | – | 312 ± 11 nm/s | 437 ± 185 nm/s | –
3 | C[C@@H](c1ncncc1F)[C@](O)(Cn1cncn1)c1ccc(F)cc1F [Voriconazole, voriconazole] | 1.66 ± 0.03 | > 87% | 273 ± 17 nm/s | 435 ± 9 nm/s | – | – | – | 1.80 [32] | 240 ± 10 nm/s | 404 ± 11 nm/s | high permeability
